{"source": "paper PMC9921896", "about": "(Molecules, 2023)", "origin": "cited, not measured here", "key": {"[1]": {"settings": "cited from earlier work"}, "[2]": {"settings": "cited from earlier work", "remark": "listed apart in the source"}, "estrogenicity": {"system": "estrogenicity", "settings": "cited from earlier work"}}}
{"compound": "CC(C)(c1ccc(O)cc1)c1ccc(O)cc1", "note": "[BPA, Bisphenol A]", "values": [{"measurement": "new TDI (draft opinion)", "setting": "[1]; EFSA draft opinion", "value": "0.04 ng (kg bw)^−1 day^−1"}, {"measurement": "t-TDI", "setting": "[1]; set by EFSA in 2015", "value": "4 μg (kg bw)^−1 day^−1"}, {"measurement": "highest dose level with no negative impact on the health", "setting": "[2]; CLARITY-BPA core study", "value": "25,000 μg kg bw^−1 day^−1"}, {"measurement": "lowest-observed-adverse-effect level (LOAEL)", "setting": "[2]; suggested from low-dose effects", "value": "2.5 μg (kg bw)^−1 day^−1"}]}
{"compound": "CC(C)(c1ccc(O)cc1)c1ccc(O[C@@H]2O[C@H](C(=O)O)[C@@H](O)[C@H](O)[C@H]2O)cc1", "note": "[BPA-based Glucuronide metabolite, reference compound]", "values": [{"measurement": "estrogenicity", "setting": "estrogenicity; BPA glucuronide", "value": "non-estrogenic"}]}
{"compound": "C=C(CC(C)(C)c1ccc(O)cc1)c1ccc(O)cc1", "note": "[MBP, 4-methyl-2,4-bis(p-hydroxyphenyl) pent-1-ene, reference compound]", "values": [{"measurement": "estrogenicity relative to BPA", "setting": "estrogenicity; metabolite formed with rat liver S9 fraction", "value": "several-thousand-fold"}]}
